Results on 22 molecules are retold here after US9993554B2 (CENTRO NACIONAL DE INVESTIGACIONES ONCOLOGICAS (CNIO), priority 2010, dated 2018).

A value given as a limit tells only on which side of the number the result lay.

One assay deals with T1, PI3K (p110α/p85α) (Homo sapiens, UniProt P42336).
T1 construct: purchased Carna Biosciences 07CBS-0402A
T1 sequence (P42336 whole entry): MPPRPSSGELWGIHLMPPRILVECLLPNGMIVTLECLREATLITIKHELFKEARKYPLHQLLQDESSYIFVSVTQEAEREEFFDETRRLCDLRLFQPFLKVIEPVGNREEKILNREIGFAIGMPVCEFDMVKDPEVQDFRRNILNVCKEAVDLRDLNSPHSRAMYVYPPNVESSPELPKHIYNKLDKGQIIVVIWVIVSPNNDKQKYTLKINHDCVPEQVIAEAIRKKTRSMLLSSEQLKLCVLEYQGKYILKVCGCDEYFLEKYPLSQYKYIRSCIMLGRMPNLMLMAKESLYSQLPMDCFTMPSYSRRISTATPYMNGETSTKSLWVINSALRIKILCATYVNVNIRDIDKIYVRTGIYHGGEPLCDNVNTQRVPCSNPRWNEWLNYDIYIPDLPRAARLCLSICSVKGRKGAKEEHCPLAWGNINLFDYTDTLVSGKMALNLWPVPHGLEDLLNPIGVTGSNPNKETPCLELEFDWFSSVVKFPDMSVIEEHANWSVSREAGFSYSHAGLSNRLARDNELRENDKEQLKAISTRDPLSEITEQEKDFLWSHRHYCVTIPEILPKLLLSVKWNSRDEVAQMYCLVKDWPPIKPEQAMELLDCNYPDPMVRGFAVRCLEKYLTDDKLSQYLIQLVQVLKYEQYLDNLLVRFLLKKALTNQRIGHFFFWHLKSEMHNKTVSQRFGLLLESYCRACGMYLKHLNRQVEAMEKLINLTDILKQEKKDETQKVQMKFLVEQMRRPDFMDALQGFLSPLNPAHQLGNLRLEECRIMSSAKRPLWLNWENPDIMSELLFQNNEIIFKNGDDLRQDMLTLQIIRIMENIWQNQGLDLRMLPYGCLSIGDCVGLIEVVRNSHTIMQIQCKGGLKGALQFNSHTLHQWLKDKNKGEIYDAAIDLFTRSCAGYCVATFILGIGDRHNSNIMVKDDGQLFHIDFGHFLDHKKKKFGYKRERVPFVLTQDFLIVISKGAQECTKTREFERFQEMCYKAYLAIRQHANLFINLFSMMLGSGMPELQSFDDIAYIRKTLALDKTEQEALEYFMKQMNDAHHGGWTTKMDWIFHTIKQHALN
T1 sequence (P27986 whole entry partner): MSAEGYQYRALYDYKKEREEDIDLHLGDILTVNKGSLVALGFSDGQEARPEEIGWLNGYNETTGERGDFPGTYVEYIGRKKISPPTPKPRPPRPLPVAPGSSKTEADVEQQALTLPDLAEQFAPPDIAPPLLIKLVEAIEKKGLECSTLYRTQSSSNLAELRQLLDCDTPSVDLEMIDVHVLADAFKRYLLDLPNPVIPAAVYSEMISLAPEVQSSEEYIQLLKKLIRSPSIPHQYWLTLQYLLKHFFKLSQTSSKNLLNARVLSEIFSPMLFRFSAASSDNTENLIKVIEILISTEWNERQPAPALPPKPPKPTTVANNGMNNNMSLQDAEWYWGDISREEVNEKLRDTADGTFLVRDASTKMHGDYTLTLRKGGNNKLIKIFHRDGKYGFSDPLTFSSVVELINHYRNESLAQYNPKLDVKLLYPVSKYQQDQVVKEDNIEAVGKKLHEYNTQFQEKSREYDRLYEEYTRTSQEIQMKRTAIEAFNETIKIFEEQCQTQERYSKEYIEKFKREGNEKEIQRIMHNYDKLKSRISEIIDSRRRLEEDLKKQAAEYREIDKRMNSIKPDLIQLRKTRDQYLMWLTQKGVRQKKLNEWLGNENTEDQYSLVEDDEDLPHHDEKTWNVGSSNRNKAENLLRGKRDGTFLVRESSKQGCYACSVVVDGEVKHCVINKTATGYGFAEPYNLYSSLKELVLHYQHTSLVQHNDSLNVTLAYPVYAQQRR
Nature of the assay: PI3K activity assay (ADP Hunter Plus). The following applies: quantitative results, Table 4; read-out: PI3Kα IC50. Type of assay: biochemical. The protocol:
The kinase activity was measured by using the commercial ADP Hunter™ Plus assay available from DiscoveRx (#33-016), which is a homogeneous assay to measure the accumulation of ADP, a universal product of kinase activity. […] Reaction was carried out for 1 hour at 25° C. Reagent A and B were sequentially added to the wells and plates were incubated for 30 min at 37° C. […] Values were normalized against the control activity included for each enzyme (i.e., 100% PI3 kinase activity, without compound). These values were plot against the inhibitor concentration and were fit to a sigmoid dose-response curve by using the Graphad software.
Take `CS(=O)(=O)N1CCN(Cc2cn3cc(-c4ccc5[nH]ncc5c4)nc(N4CCOCC4)c3n2)CC1` [Compound 2-127]: the IC50 amounted to 37000 nM. The same measure, in the same setting: for `CS(=O)(=O)N1CC2(CCN(Cc3cn4cc(-c5cccc6[nH]ncc56)nc(N5CCOCC5)c4n3)CC2)C1` [Compound 2-145] the value was 3000 nM.

The same assay, now with this note: quantitative results; read-out: PI3Kα IC50.
As for `Cc1cn2cc(-c3ccc4cc[nH]c4c3)nc(N3CCOCC3)c2n1` [Compound 2-25], the IC50 was 10000 nM. On to `Cc1cn2cc(-c3cccc(NS(C)(=O)=O)c3)nc(N3CCOCC3)c2n1` [Compound 2-28], for which the IC50 came to 50000 nM. On the same count and under the same terms, for `COc1ccc(-c2cn3cc(CN4CCN(S(C)(=O)=O)CC4)nc3c(N3CCOCC3)n2)cn1` [Compound 2-61] the value was 4500 nM; for `CS(=O)(=O)N1CCN(Cc2cn3cc(-c4ccc(N)nc4)nc(N4CCOCC4)c3n2)CC1` [Compound 2-66], 169 nM. Take `CS(=O)(=O)N1CCN(Cc2cn3cc(-c4ccc(C(N)=O)cc4)nc(N4CCOCC4)c3n2)CC1` [Compound 2-68]: the IC50 stood at 11000 nM.

In the case of `CS(=O)(=O)N1CCN(Cc2cn3cc(-c4cnc5[nH]ccc5c4)nc(N4CCOCC4)c3n2)CC1` [Compound 2-75], the IC50 was 113 nM. Regarding `CNC(=O)Nc1ccc(-c2cn3cc(CN4CCN(S(C)(=O)=O)CC4)nc3c(N3CCOCC3)n2)cc1` [Compound 2-82], the IC50 came to 158 nM.

Consider `CS(=O)(=O)N1C2CCC1CN(Cc1cn3cc(-c4cnc(N)nc4)nc(N4CCOCC4)c3n1)C2` [Compound 2-228], for which the IC50 was 108 nM.

Still in this assay, the particulars now being: semi-quantitative results; read-out: PI3Kα IC50 (semi-quantitative class).
Take `CS(=O)(=O)N1CCN(C(=O)c2cn3cc(-c4cccc5[nH]ncc45)nc(N4CCOCC4)c3n2)CC1` [Compound 2-16]: the IC50 was 100 to 1000 nM. On the same count and under the same terms, for `O=C(c1cn2cc(-c3cccc4[nH]ncc34)nc(N3CCOCC3)c2n1)N1CCNCC1` [Compound 2-18] the value was 100 to 1000 nM; for `CN1CCN(c2cnc3c(N4CCOCC4)nc(-c4cccc(O)c4)cn23)CC1` [Compound 2-37], 100 to 1000 nM. On to `CN1CCN(c2cnc3c(N4CCOCC4)nc(-c4cccc5[nH]ncc45)cn23)CC1` [Compound 2-38], for which the IC50 fell in the range of 100 to 1000 nM. Consider `CS(=O)(=O)N1CCN(c2cnc3c(N4CCOCC4)nc(-c4cccc(O)c4)cn23)CC1` [Compound 2-39], for which the IC50 was 100 to 1000 nM. `Oc1cccc(-c2cn3c(N4CCNCC4)cnc3c(N3CCOCC3)n2)c1` [Compound 2-40]: the IC50 was 100 to 1000 nM. On to `CS(=O)(=O)N1CCN(c2cnc3c(N4CCOCC4)nc(-c4cccc5[nH]ncc45)cn23)CC1` [Compound 2-41], for which the IC50 lay in the range of 100 to 1000 nM. As for `Cc1cn2c(Cl)c(-c3cccc(O)c3)nc(N3CCOCC3)c2n1` [Compound 2-49], the IC50 lay within 100 to 1000 nM. Take `Cc1nc2c(N3CCOCC3)nc(-c3cccc4[nH]ncc34)cn2c1C1CCN(C)CC1` [Compound 2-58]: the IC50 was 100 to 1000 nM. As for `CS(=O)(=O)N1CCN(Cc2cn3c(Cl)c(-c4cccc5[nH]ncc45)nc(N4CCOCC4)c3n2)CC1` [Compound 2-60], the 50% inhibitory concentration (IC50) was 100 to 1000 nM. `COc1cncc(-c2cn3cc(CN4CCN(S(C)(=O)=O)CC4)nc3c(N3CCOCC3)n2)c1` [Compound 2-65]: the IC50 is above 1000 nM. In the case of `COc1ncc(-c2cn3cc(CN4CCN(S(C)(=O)=O)CC4)nc3c(N3CCOCC3)n2)cn1` [Compound 2-67], the IC50 was in the range of 100 to 1000 nM.

Another assay concerns phospho-Ser-473-Akt. Nature of the assay: AKT phosphorylation inhibition, Western blot cell assay. Type of assay: cell-based. The following applies: Homo sapiens; cell assay procedure; read-out: IC50 of AKT Phosphorylation Inhibition, p-AKT cell. The protocol:
The cell lines were obtained from the American Type Culture Collection (ATCC). U2OS (human osteosarcoma) was cultured in Dulbecco's modified Eagle's medium (DMEM). PC3 (human prostate carcinoma), MCF7 (human breast cardinoma), HCT116 (human colon carcinoma), 768-0 (human neuroblastoma), U251 (human glyoblastoma) were grown in RPMI. All media were supplemented with 10% fetal bovine serum (FBS) (Sigma) and antibiotics-antimycotics. Cell were maintained in a humidified incubator at 37° C. with 5% CO2 and passaged when confluent using trypsin/EDTA.
Subconfluent cells were incubated under different conditions and washed twice with TBS prior to lysis. Lysis buffer was added containing 50 mM Tris HCl, 150 mM NaCl, 1% NP-40, 2 mM Na3VO4, 100 mM NaF, 20 mM Na4P2O7 and protease inhibitor cocktail (Roche Molecular Biochemicals). The proteins were resolved on 10% SDS-PAGE and transferred to nitrocellulose membrane (Schleicher & Schuell, Dassel, Germany). The membranes were incubated overnight at 4° C. with antibodies specific for Akt, phospho-Ser-473-Akt (Cell Signaling Technology) and α-tubulin (Sigma), they were washed and then incubated with IRDye800 conjugated anti-mouse and Alexa Fluor 680 goat anti-rabbit IgG secondary antibodies. The bands were visualized using an Odyssey infrared imaging system (Li-Cor Biosciences).
Background: In western blotting, separated proteins are transferred to a membrane and probed.
In the case of `CS(=O)(=O)N1CCN(C(=O)c2cn3cc(-c4cccc5[nH]ncc45)nc(N4CCOCC4)c3n2)CC1` [Compound 2-16], the IC50 came out at 503 nM. With `CS(=O)(=O)N1CCN(Cc2cn3cc(-c4ccc(N)nc4)nc(N4CCOCC4)c3n2)CC1` [Compound 2-66], the IC50 is 14 nM. `COc1ncc(-c2cn3cc(CN4CCN(S(C)(=O)=O)CC4)nc3c(N3CCOCC3)n2)cn1` [Compound 2-67]: the IC50 was 198 nM. As for `CS(=O)(=O)N1CCN(Cc2cn3cc(-c4cnc5[nH]ccc5c4)nc(N4CCOCC4)c3n2)CC1` [Compound 2-75], the IC50 was 77 nM.

For orientation: IC50 means the concentration that gives 50% inhibition.
